Values quoted from earlier work in patent publication US20030228375A1 (priority 2002, published 2003).
Like-named read-outs stand apart in the source and are kept apart here.

Columns and labels:
[1] = tested on: healthy young men; settings: 300 mg/wk for six weeks; TE shoulders, ND shoulders and chest
[2] = tested on: hypogonadal men; settings: for waking erection: Asian group; for sexual interest and activity, spontaneous erection: Caucasian group
[3] = supplementation
[4] = in vivo
[5] = supplementation; remark: listed apart in the source
[6] = tested on: young female rats
[7] = body builders
[8] = nandrolone use
[9] = tested on: patients on dialysis; settings: compared with placebo
[10] = tested on: levator ani muscles
[11] = tested on: prostate and seminal vesicle weights
[12] = tested on: people with panhypopituitarism
[13] = tested on: HIV-infected men; settings: pharmacological doses
[14] = target: T1, aromatase (Homo sapiens, UniProt P11511); settings: compared with chrysin, AG and ANG
T1 sequence (P11511 1-503): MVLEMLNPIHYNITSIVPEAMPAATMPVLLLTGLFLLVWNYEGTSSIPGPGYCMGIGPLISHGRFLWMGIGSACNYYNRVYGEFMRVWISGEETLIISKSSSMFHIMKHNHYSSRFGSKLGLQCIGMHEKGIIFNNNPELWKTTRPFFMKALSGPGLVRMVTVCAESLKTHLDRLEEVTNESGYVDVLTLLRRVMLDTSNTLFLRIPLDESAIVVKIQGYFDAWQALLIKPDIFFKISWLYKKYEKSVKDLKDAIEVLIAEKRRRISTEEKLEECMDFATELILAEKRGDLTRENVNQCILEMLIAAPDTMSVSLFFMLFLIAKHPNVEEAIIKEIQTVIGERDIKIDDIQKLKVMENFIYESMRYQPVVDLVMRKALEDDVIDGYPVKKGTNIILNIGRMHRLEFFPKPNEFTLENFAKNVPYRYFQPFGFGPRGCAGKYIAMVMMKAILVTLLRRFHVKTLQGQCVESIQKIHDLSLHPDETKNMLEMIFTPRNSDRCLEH

CCCCCCC(=O)O[C@H]1CC[C@H]2[C@@H]3CCC4=CC(=O)CC[C@]4(C)[C@H]3CC[C@]12C [TE, testosterone enanthate]
body circumferences (of fifteen) [1]: significant increases
waking erection [2]: increased waking erection
sexual interest and activity, spontaneous erection [2]: significant increases

C[C@]12CC[C@H]3[C@@H](CCC4=C[C@@H](O)CC[C@@]43C)[C@@H]1CC[C@@H]2O [4-androstenediol]
urine testosterone concentration relative to 4-androstenedione [3]: 10 fold
human serum testosterone levels [4]: elevations in human serum testosterone levels

C[C@]12CCC(=O)C=C1CC[C@@H]1[C@@H]2CC[C@]2(C)C(=O)CC[C@@H]12 [4-androstenedione]
serum testosterone [5]: elevations in serum testosterone

C[C@]12CC[C@H]3[C@@H](CCC4=CC(=O)CC[C@@]43C)[C@@H]1CC[C@@H]2O [testosterone]
proportion of protein in the body composition [6]: increased the proportion of protein

C[C@]12CC[C@H]3[C@@H](CC=C4C[C@@H](O)CC[C@@]43C)[C@@H]1CC[C@@H]2O [5-androstenediol]
proportion of protein in the body composition [6]: increased the proportion of protein

C[C@]12CC[C@H]3[C@@H](CCC4=CC(=O)CC[C@@H]43)[C@@H]1CC[C@@H]2O [nandrolone, 19-nor-testosterone]
energy expenditure [6]: increased energy expenditure
decrease in HDL-cholesterol [7]: 25-27%
effect on sperm [8]: azoospermia
lean body mass [9]: increased significantly

C[C@@H]1CC2=CC(=O)CC[C@@H]2[C@H]2CC[C@]3(C)[C@@H](O)CC[C@H]3[C@@H]21 [MENT, 7α-methyl-19-nor-testosterone]
anabolic potency relative to testosterone [10]: ten-times as potent as testosterone
androgenic potency relative to testosterone [11]: four- to five-times more androgenic than testosterone
waking erection [2]: increased waking erection
sexual interest and activity, spontaneous erection [2]: significant increases

C[C@]12CC[C@H](O)CC1=CC[C@@H]1[C@@H]2CC[C@]2(C)C(=O)CC[C@@H]12 [DHEA, dehydro-epiandrosterone]
plasma testosterone ([12]; 50 mg dose): restored plasma testosterone to levels similar to those observed in young women
plasma estrogens, particularly estradiol ([12]; 50 mg or 200 mg): significant and dose dependent increase
plasma testosterone ([12]; 200 mg dose): slightly below the levels observed in normal men

CCCCCCCCCC(=O)O[C@H]1CC[C@H]2[C@@H]3CCC4=CC(=O)CC[C@@H]4[C@H]3CC[C@]12C [ND, 19-nor-testosterone decanoate]
total weight, lean body mass, body cell mass, muscle size and strength [13]: significant gains
body circumferences (of fifteen) [1]: significant increases

COc1ccc(-c2coc3cc(O)cc(O)c3c2=O)cc1 [Biochanin A, 5,7-dihydroxy-4′-methoxyisoflavone]
aromatase inhibition [14]: inhibited aromatase, but to a lesser degree
